{"source": "patent US20090304692A1", "about": "“TRIAZINE COMPOUNDS AS PI3 KINASE AND MTOR INHIBITORS” (Wyeth, priority 2008, published 2009)", "key": {"PI3K-γ": {"target": "PI3K-γ (Homo sapiens, UniProt P48736)", "sequence (P48736 whole entry, species assumed)": "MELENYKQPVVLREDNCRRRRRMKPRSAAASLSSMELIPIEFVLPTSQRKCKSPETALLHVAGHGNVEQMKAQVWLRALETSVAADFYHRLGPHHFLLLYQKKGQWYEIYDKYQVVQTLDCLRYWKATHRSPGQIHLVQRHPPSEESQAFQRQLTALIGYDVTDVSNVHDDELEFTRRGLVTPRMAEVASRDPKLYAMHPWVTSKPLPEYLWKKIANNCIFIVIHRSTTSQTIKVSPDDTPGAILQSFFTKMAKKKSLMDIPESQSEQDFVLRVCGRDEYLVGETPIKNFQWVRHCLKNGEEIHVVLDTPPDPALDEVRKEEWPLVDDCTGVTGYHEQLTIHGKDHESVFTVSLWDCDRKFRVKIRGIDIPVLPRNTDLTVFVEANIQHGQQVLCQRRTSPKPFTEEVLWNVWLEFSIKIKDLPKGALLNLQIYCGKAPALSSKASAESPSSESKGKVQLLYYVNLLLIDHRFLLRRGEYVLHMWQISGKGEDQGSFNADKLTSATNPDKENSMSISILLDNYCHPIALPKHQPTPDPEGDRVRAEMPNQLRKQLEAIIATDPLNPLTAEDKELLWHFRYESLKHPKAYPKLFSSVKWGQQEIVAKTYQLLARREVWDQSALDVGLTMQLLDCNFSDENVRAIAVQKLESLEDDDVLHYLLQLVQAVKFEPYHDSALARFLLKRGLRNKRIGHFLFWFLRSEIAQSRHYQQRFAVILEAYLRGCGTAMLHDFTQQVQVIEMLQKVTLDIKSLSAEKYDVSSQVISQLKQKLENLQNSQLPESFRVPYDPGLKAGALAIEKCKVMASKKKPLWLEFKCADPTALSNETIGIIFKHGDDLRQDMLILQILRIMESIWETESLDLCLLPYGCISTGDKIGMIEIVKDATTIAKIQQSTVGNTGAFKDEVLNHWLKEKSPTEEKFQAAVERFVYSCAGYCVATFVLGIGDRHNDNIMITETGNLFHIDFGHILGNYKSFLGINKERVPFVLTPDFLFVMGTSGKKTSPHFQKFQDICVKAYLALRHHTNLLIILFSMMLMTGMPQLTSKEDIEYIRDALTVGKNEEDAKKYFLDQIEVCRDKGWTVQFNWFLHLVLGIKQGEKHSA", "assay": "PI3K-gamma fluorescence polarization assay", "settings": "read-out: IC50 PI3Kγ"}, "Human mTOR (FLAG-TOR)": {"target": "Human mTOR (FLAG-TOR) (Homo sapiens, UniProt P42345)", "sequence (P42345 1360-2549 limits assumed)": "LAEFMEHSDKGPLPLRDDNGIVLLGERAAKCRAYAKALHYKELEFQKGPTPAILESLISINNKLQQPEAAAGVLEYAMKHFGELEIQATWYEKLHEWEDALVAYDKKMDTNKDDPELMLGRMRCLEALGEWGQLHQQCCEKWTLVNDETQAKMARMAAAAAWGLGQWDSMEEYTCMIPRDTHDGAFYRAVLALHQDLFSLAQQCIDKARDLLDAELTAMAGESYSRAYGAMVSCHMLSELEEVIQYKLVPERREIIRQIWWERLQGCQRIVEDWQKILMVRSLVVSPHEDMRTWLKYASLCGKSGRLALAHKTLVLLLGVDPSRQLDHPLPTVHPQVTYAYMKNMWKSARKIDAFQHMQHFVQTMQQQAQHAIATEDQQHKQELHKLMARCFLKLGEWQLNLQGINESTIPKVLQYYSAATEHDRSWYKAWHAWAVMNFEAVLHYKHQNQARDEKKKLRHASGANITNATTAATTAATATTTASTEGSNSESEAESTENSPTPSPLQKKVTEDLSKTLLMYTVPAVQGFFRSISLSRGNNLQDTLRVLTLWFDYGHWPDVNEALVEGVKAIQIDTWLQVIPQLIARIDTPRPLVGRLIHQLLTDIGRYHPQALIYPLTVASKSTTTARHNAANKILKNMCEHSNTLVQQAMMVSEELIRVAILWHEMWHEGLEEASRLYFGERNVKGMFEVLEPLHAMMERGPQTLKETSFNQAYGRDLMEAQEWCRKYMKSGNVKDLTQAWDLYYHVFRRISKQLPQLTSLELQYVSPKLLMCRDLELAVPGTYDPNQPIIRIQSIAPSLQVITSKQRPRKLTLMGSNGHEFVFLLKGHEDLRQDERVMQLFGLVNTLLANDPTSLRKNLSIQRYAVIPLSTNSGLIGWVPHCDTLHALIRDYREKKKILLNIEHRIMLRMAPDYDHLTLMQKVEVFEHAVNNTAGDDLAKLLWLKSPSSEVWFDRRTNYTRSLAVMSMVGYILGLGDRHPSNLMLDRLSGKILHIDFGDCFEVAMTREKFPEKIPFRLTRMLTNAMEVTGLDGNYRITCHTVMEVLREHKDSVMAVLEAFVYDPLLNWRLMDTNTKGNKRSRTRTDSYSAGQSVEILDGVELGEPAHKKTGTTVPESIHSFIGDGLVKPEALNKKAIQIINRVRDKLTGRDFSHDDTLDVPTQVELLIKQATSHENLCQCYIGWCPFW", "assay": "mTOR kinase assay (DELFIA format, purified enzyme)", "format": "biochemical", "settings": "read-out: IC50 mTOR"}, "PI3K-α": {"target": "PI3K-α (Homo sapiens, UniProt P42336)", "sequence (P42336 whole entry, species assumed)": "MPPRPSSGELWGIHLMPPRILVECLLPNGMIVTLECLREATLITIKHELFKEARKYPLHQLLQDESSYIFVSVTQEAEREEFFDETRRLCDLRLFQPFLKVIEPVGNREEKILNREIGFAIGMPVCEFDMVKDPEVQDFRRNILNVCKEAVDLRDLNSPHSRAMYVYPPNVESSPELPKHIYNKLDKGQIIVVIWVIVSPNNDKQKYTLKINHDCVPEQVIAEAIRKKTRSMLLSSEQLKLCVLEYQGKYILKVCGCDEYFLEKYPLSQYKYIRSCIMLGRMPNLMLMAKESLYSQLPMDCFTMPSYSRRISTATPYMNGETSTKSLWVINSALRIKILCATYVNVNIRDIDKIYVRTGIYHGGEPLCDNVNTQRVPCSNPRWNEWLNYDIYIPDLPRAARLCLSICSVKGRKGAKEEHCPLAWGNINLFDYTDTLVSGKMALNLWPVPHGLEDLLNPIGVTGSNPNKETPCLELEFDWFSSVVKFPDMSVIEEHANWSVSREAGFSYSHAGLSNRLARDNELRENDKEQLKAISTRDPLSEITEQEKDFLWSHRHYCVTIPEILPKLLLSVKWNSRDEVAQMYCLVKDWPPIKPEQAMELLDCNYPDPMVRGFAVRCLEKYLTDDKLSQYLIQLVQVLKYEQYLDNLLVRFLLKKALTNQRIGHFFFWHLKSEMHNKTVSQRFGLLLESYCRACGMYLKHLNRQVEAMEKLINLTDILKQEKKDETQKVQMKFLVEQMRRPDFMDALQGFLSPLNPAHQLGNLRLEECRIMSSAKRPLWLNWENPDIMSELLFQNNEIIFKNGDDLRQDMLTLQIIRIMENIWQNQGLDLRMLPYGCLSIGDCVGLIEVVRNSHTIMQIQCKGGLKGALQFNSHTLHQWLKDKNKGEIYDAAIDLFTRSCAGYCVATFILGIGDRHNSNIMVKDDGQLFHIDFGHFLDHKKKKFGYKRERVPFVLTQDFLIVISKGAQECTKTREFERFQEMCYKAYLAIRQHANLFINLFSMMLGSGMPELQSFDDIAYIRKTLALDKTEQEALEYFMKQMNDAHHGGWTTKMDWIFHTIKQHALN", "sequence (P27986 whole entry partner, species assumed)": "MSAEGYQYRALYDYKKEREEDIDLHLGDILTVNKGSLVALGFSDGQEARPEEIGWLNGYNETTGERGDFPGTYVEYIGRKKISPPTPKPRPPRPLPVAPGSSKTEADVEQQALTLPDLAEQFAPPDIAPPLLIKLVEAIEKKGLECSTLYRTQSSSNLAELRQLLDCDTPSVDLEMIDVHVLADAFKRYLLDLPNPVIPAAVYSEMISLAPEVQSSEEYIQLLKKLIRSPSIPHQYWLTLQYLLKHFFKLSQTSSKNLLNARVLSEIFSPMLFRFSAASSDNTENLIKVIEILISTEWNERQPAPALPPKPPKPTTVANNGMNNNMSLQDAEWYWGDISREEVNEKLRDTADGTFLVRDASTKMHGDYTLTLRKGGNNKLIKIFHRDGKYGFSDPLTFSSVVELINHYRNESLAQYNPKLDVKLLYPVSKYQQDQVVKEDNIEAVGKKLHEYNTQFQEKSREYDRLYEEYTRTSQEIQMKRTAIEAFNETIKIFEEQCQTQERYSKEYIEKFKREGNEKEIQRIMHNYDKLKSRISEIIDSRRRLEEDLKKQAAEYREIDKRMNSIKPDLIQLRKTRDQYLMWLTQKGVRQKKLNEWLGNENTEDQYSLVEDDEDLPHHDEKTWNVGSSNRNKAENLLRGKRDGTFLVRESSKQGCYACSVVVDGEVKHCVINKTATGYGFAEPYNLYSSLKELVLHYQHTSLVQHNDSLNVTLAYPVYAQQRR", "assay": "PI3K-alpha fluorescence polarization assay"}}, "note": "Values joined by “and” are separate entries in the source; they are usually repeats but may differ in a detail not shown here. Equal values may be shown once. Read-outs that look alike come from different tables or passages of the source."}
{"smiles": "COC(=O)c1ccc(NC(=O)Nc2ccc(-c3nc(-c4ccccc4)nc(N4CCOCC4)n3)cc2)cc1", "note": "[Example 538, methyl 4-({[4-(4-morpholin-4-yl-6-phenyl-1,3,5-triazin-2-yl)phenyl]carbamoyl}amino)benzoate]", "values": [{"measurement": "IC50", "setting": "PI3K-γ", "value": 197, "unit": "nM"}, {"measurement": "IC50", "setting": "Human mTOR (FLAG-TOR)", "value": 0.125, "unit": "nM"}, {"measurement": "IC50", "setting": "PI3K-α; read-out: IC50 PI3Kα", "value": 333, "unit": "nM"}]}
{"smiles": "CN(C)CCN1CCN(C(=O)c2ccc(NC(=O)Nc3ccc(-c4nc(N5CCOCC5)nc(N5CCOCC5)n4)cc3)cc2)CC1", "note": "[Example 168, 1-[4-({4-[2-(dimethylamino)ethyl]piperazin-1-yl}carbonyl)phenyl]-3-[4-(4,6-dimorpholin-4-yl-1,3,5-triazin-2-yl)phenyl]urea]", "values": [{"measurement": "IC50", "setting": "PI3K-γ", "value": 3, "unit": "nM"}, {"measurement": "IC50", "setting": "Human mTOR (FLAG-TOR)", "value": 3.6, "unit": "nM"}, {"measurement": "IC50", "setting": "PI3K-α; read-out: IC50 PI3Kα", "value": 1, "unit": "nM"}]}
{"smiles": "CC(C)c1nc(-c2ccc(NC(=O)Nc3ccc(I)cc3)cc2)nc(N2CCOCC2)n1", "note": "[Example 490, 1-(4-iodophenyl)-3-{4-[4-(1-methylethyl)-6-morpholin-4-yl-1,3,5-triazin-2-yl]phenyl}urea]", "values": [{"measurement": "IC50", "setting": "PI3K-γ", "value": 1080, "unit": "nM"}, {"measurement": "IC50", "setting": "Human mTOR (FLAG-TOR)", "value": 11.6, "unit": "nM"}, {"measurement": "IC50", "setting": "PI3K-α; read-out: IC50 PI3Kα", "value": 586, "unit": "nM"}]}
{"smiles": "Cc1ccc(-c2nc(-c3ccc(NC(=O)Nc4ccc(N5CCN(C)CC5)cc4)cc3)nc(N3CCOCC3)n2)cc1", "note": "[Example 343, 1-{4-[4-(4-methylphenyl)-6-morpholin-4-yl-1,3,5-triazin-2-yl]phenyl}-3-[4-(4-methylpiperazin-1-yl)phenyl]urea]", "values": [{"measurement": "IC50", "setting": "PI3K-γ", "value": 6700, "unit": "nM"}, {"measurement": "IC50", "setting": "PI3K-γ; listed as 526", "value": 6700, "unit": "nM"}, {"measurement": "IC50", "setting": "Human mTOR (FLAG-TOR)", "value": "40 nM and 47.5 nM"}, {"measurement": "IC50", "setting": "PI3K-α; read-out: IC50 PI3Kα", "value": 97, "unit": "nM"}, {"measurement": "IC50", "setting": "PI3K-α; read-out: IC50 PI3Kα, listed as 526", "value": 96.5, "unit": "nM"}]}
{"smiles": "CNC(=O)Nc1ccc(-c2nc(-c3ccc(NC(=O)Nc4ccc(C(N)=O)cc4)cc3)nc(N3CCOCC3)n2)cc1", "note": "[Example 462, 4-({[4-(4-{4-[(methylcarbamoyl)amino]phenyl}-6-morpholin-4-yl-1,3,5-triazin-2-yl)phenyl]carbamoyl}amino) benzamide]", "values": [{"measurement": "IC50", "setting": "Human mTOR (FLAG-TOR)", "value": "< 1", "unit": "nM"}]}
{"smiles": "Cc1ccc(NC(=O)Nc2ccc(-c3nc(NC4CN(C(=O)OC(C)(C)C)C4)nc(N4CCOCC4)n3)cc2)cc1", "note": "[Example 16, tert-butyl 3-{[4-(4-{[(4-methylphenyl)carbamoyl]amino}phenyl)-6-morpholin-4-yl-1,3,5-triazin-2-yl]amino}azetidine-1-carboxylate]", "values": [{"measurement": "IC50", "setting": "Human mTOR (FLAG-TOR)", "value": 12, "unit": "nM"}, {"measurement": "IC50", "setting": "PI3K-α", "value": "> 10000", "unit": "nM"}]}
{"smiles": "CN(C)[C@H]1CCN(C(=O)c2ccc(NC(=O)Nc3ccc(-c4nc(N5CCOCC5)nc(N5CCOCC5)n4)cc3)cc2)C1", "note": "[Example 485, 1-(4-{[(3S)-3-(dimethylamino)pyrrolidin-1-yl]carbonyl}phenyl)-3-[4-(4,6-dimorpholin-4-yl-1,3,5-triazin-2-yl)phenyl]urea]", "values": [{"measurement": "IC50", "setting": "Human mTOR (FLAG-TOR)", "value": 1.25, "unit": "nM"}, {"measurement": "IC50", "setting": "PI3K-α; read-out: IC50 PI3Kα", "value": 1.4, "unit": "nM"}]}
{"smiles": "CN(C)[C@@H]1CCN(C(=O)c2ccc(NC(=O)Nc3ccc(-c4nc(N5CCOCC5)nc(N5CCOCC5)n4)cc3)cc2)C1", "note": "[Example 484, 1-(4-{[(3R)-3-(dimethylamino)pyrrolidin-1-yl]carbonyl}phenyl)-3-[4-(4,6-dimorpholin-4-yl-1,3,5-triazin-2-yl)phenyl]urea]", "values": [{"measurement": "IC50", "setting": "Human mTOR (FLAG-TOR)", "value": 0.63, "unit": "nM"}, {"measurement": "IC50", "setting": "PI3K-α; read-out: IC50 PI3Kα", "value": 1, "unit": "nM"}]}
{"smiles": "O=C(Nc1ccc(-c2nc(N3CCOCC3)nc(N3CCOCC3)n2)cc1)Nc1ccc(C(O)(C(F)(F)F)C(F)(F)F)cc1", "note": "[Example 56, 1-[4-(4,6-dimorpholin-4-yl-1,3,5-triazin-2-yl)phenyl]-3-{4-[2,2,2-trifluoro-1-hydroxy-1-(trifluoromethyl)ethyl]phenyl}urea]", "values": [{"measurement": "IC50", "setting": "Human mTOR (FLAG-TOR)", "value": "15 nM and 10 nM"}]}
{"smiles": "CC(C)N1CCN(C(=O)c2ccc(NC(=O)Nc3ccc(-c4nc(C5CCOCC5)nc(N5CCOCC5)n4)cc3)cc2)CC1", "note": "[Example 523, 1-(4-{[4-(1-methylethyl)piperazin-1-yl]carbonyl}phenyl)-3-{4-[4-morpholin-4-yl-6-(tetrahydro-2H-pyran-4-yl)-1,3,5-triazin-2-yl]phenyl}urea]", "values": [{"measurement": "IC50", "setting": "Human mTOR (FLAG-TOR)", "value": 0.43, "unit": "nM"}]}
{"smiles": "COc1ccc(NC(=O)Nc2ccc(-c3nc(N4CCOCC4)nc(N4CCOCC4)n3)cc2)c(OC)c1", "note": "[Example 7, 1-(2,4-dimethoxyphenyl)-3-[4-(4,6-dimorpholin-4-yl-1,3,5-triazin-2-yl)phenyl]-urea]", "values": [{"measurement": "IC50", "setting": "Human mTOR (FLAG-TOR)", "value": "> 4000", "unit": "nM"}, {"measurement": "IC50", "setting": "PI3K-α", "value": "> 10000", "unit": "nM"}]}
